Molecules are shown by their SMILES.

This is an account of results in article PMC8000079, “Targeting GABAC Receptors Improves Post-Stroke Motor Recovery” (Brain Sciences, 2021).

Holding throughout (format): cell-based
In one assay the target is T1, α5β2γ2 GABAA receptor (Homo sapiens, UniProt P31644+P47870).
T1 construct: gene GABRA5; α5β2γ2 receptors expressed in Xenopus oocytes; with β2 and γ2 GABAA subunits
The experiment in a line: two-electrode voltage clamp in Xenopus oocytes, % inhibition of GABA ([…]) current at […]. (Two-electrode voltage clamp holds a large cell at a set potential and records current.)

Assay [1] addresses T2, ρ2 GABAC receptor (Homo sapiens, UniProt P28476).
T2 construct: gene GABRR2; human recombinant ρ2 GABAC receptors expressed in Xenopus oocytes
The experiment in a line: two-electrode voltage clamp in Xenopus oocytes, shift of GABA concentration-response curve. To be noted: read-out: Kd.

For assay [2], the target named is T2, ρ2 GABAC receptor. The experiment in a line: two-electrode voltage clamp in Xenopus oocytes, agonist dose-response.

T2 sequence (P28476 21-465): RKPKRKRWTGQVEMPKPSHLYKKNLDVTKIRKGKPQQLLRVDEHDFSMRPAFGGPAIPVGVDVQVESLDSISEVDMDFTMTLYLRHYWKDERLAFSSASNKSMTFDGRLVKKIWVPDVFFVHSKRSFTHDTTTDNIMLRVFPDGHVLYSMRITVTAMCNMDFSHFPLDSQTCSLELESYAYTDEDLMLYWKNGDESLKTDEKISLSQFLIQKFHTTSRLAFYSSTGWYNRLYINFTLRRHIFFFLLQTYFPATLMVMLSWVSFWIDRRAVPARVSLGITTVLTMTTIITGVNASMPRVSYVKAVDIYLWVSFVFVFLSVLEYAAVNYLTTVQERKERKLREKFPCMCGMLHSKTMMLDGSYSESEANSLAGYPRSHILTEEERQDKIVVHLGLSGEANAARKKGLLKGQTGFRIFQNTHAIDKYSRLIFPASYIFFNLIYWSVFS
T1 sequence (P47870 26-512): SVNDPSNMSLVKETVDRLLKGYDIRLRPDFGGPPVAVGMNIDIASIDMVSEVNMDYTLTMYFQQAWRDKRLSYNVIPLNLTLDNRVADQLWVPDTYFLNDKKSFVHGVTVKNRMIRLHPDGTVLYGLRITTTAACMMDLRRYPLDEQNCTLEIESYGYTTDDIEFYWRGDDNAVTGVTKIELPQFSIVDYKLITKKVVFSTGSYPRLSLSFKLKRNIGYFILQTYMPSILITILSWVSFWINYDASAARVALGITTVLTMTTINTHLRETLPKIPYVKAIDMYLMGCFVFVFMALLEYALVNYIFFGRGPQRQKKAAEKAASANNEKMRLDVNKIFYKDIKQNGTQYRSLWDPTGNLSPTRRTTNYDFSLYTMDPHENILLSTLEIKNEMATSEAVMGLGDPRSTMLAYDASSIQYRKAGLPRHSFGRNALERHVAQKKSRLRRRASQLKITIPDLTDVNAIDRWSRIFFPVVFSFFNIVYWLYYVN
T1 sequence (P18507 40-475, further chain): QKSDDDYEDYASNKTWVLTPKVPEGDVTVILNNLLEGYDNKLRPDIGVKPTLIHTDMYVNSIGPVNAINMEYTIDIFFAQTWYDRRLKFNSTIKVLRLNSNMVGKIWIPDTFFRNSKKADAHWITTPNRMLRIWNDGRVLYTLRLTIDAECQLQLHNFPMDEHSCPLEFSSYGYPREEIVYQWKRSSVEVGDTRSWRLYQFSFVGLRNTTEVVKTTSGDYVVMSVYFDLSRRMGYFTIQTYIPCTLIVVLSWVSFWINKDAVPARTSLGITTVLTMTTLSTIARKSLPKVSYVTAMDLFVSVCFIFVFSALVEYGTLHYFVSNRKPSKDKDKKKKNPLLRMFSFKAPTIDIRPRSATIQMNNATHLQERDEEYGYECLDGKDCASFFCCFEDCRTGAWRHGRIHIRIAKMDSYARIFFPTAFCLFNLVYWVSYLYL
T1 sequence (P31644 32-462): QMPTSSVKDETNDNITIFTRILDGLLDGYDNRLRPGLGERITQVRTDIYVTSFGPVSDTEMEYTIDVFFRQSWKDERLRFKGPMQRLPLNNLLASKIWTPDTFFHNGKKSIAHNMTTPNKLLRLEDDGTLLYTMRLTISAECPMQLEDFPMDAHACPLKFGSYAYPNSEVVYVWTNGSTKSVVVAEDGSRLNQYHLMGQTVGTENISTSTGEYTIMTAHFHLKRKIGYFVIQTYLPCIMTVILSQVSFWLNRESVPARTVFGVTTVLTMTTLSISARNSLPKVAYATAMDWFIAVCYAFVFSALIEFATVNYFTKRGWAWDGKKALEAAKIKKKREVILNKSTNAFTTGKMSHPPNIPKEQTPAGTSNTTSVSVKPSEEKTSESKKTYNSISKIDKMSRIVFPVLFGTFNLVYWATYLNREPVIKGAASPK

As a reminder, the inhibition is how much of the control response was suppressed. `CCCCP(=O)(O)C1=CC[C@@H](N)C1` [(R)-4-ACPBPA, (R)-4-amino-cyclopent-1-enyl butylphosphinic acid] came in with an inhibition at 100 µM on α5β2γ2 GABAA receptor of 36 ± 2%. Besides, at ρ2 GABAC receptor [1], the Kb is 6 µM. `CCCCP(=O)(O)C1=CC[C@H](N)C1` [(S)-4-ACPBPA, (S)-4-amino-cyclopent-1-enyl butylphosphinic acid] registered an inhibition at 100 µM against α5β2γ2 GABAA receptor of 37 ± 1.5%. The Kb on ρ2 GABAC receptor [1] worked out at 10.5 µM. As for `NCCCC(=O)O` [GABA, γ-aminobutyric acid], the EC50 at ρ2 GABAC receptor [2] is ~ 1 µM.
